Results reported in US9676820B2, “Method for inhibiting proliferation of high LIX1L-expressing tumor cell, and tumor cell proliferation-inhibiting peptide” (National University Corporation Hamamatsu University School …, priority 2013, dated 2017).

Experiments:
Format in all cases: cell-based
HL-60 strain = assay: Viable cell counts (Trypan blue staining), HL-60 strain; conditions: 5 μM peptide, vs untreated
Experimental: Specifically, cells plated such that the density thereof became 1×10^4 cells/3.5 cm well for one plate (6 wells/plate) for each cell strain were cultured for one night in a culture solution having the same composition as those of the culture solutions described in the reference examples. After culturing of 1 well out of the 6 wells was completed, Trypan blue staining was performed on the 1 well, and viable cell counts were counted. The remaining 5 wells were cultured after exchanging the culture solution with a liquid mixture of a Lipofectamine (registered trademark) reagent (12.5 μL/well) and a culture solution (2 mL/well) of which the shRNA concentration became 2.5 μg/well. Then, Trypan blue staining was performed on 1 well 24 hours after the exchange of a culture medium, 1 well 48 hours after the exchange of a culture medium, and the remaining 1 well 72 hours after the exchange of a culture medium, and the viable cell counts were counted. As a control, the viable cell counts were measured (untreated) by performing the culturing similarly to the above except that a culture medium was exchanged with a culture solution to which no shRNA was added.
Specifically, the viable cell counts were measured after culturing the cells similarly to Example 1 except that a 5 μM culture solution containing a control peptide, a peptide 1, or a peptide 2 was used instead of the culture solution (2 mL/well) of which the shRNA concentration was 2.5 μg/well. The viable cell counts were measured (untreated) by performing the culturing similarly to Example 1 using a culture solution containing no peptide 2, as a control.

KATO-III strain = assay: MTT assay, KATO-III strain; conditions: MTT assay, 72 hours
Experimental: (§1) Specifically, first, cells plated in a 96-well microplate such that the density thereof became 5×10^3 cells/well were cultured for one night in a culture solution having the same composition as those in the reference examples. Thereafter, the culture solution was exchanged with 100 μL of a culture solution of which the concentration of peptides is 0 μM to 100 μM for culturing for 72 hours. After the culturing, an MTT-containing PBS solution was added to the culture solution, and the mixture was incubated for 4 hours. Then, formazan which was generated by putting 100 μL of isopropanol (containing 34 (v/v) % of hydrochloric acid) into each of the wells was dissolved. The absorbance of each of the wells of the microplate at 570 nm was measured using a microplate reader. As controls, culturing was performed in the same manner except that no peptide was added to the strains, an MTT assay was performed thereon, and the absorbance at 570 nm was measured (untreated).

OCUM-1 strain = assay: MTT assay, OCUM-1 strain; conditions: MTT assay, 72 hours
Experimental: as §1

NUGC-4 strain = assay: MTT assay, NUGC-4 strain
Experimental: as §1, with “Thereafter, the culture solution was exchanged with 100 μL of a culture solution of which the concentration of peptides is 0 μM to 100 μM for culturing for 72 hours.” left out
In the method for measuring the viable cell counts, cells were cultured for 3 days similarly to Example 1 except that a 25 μM (10 μM for an HL-60 strain, a K562 strain, and a U937 strain) culture solution containing a control peptide or a peptide 1 was used, and the viable cell counts were measured. As a comparison, culturing was performed similarly to the above using a culture solution containing no peptide, and the viable cell counts were measured (untreated).
In addition, in the method for performing an MTT assay, cells were cultured for 72 hours similarly to Example 2 except that a peptide to be added to a strain was set to a control peptide or a peptide 1 at 25 μM (10 μM for an HL-60 strain, a K562 strain, and a U937 strain), an MTT assay was performed thereon, and the absorbance at 570 nm was measured. As a comparison, culturing was performed similarly to the above using a culture solution containing no peptide, and the MTT assay was performed thereon (untreated).
Specifically, the cells were cultured for 72 hours similarly to Example 2 except that a peptide to be added to a cell was set to a peptide 1, 2, 5, or 6, MTT assays were performed thereon, and the absorbance at 570 nm was measured. As a comparison, culturing was performed similarly to the above using a culture solution containing no peptide, and the MTT assay was performed thereon (untreated).
Specifically, the cells were cultured for 72 hours similarly to Example 2 except that peptides to be added to cell strains were set to peptides 7 to 14, MTT assays were performed thereon, and the absorbance at 570 nm was measured. […]
Specifically, the cells were cultured for 72 hours similarly to Example 2 except that a peptide to be added to a cell strain was set to a peptide 15 or 16, an MTT assay was performed thereon, and the absorbance at 570 nm was measured. […]

CC(C)[C@H](NC(=O)[C@H](Cc1ccc(O)cc1)NC(=O)[C@H](CS)NC(=O)[C@@H](NC(=O)[C@H](Cc1ccc(O)cc1)NC(=O)[C@@H]1CCCN1C(=O)[C@@H]1CCCN1C(=O)[C@H](CO)NC(=O)[C@H](CC(N)=O)NC(=O)[C@H](CO)NC(=O)[C@@H]1CCCN1C(=O)CCCCCNC(=O)[C@H](CCCNC(=N)N)NC(=O)[C@H](CCCNC(=N)N)NC(=O)[C@H](CCCNC(=N)N)NC(=O)[C@H](CCC(N)=O)NC(=O)[C@H](CCCNC(=N)N)NC(=O)[C@H](CCCNC(=N)N)NC(=O)[C@H](CCCCN)NC(=O)[C@H](CCCCN)NC(=O)[C@H](CCCNC(=N)N)NC(=O)CNC(=O)[C@@H](N)Cc1ccc(O)cc1)C(C)C)C(N)=O [peptide 1, YGRKKRRQRRR-X-PSNSPPYVCYV-NH2]
viable cell counts (HL-60 strain; after 72 hours): very small
viable cell counts (HL-60 strain; after culturing for 24 hours): decreased
concentration at which a dominant effect of inhibiting the cell proliferation was recognized (KATO-III strain): greater than or equal to 25 μM
concentration at which a dominant effect of inhibiting the cell proliferation was recognized (OCUM-1 strain): greater than or equal to 6.25 μM
cell proliferation (MTT assay, absorbance at 570 nm) (NUGC-4 strain; 72 hours, peptide concentrations up to 250 μM): inhibited
cell proliferation (viable cell counts and MTT assay) (NUGC-4 strain; peptide 25 μM, 3 days / 72 hours): not inhibited
